Literature values as cited in patent US20150209442A1, “METHOD TO IMPROVE PHARMACOKINETICS OF DRUGS” (The Board of Regents of the University of Texas System, priority 2012, published 2015).

Tests used:
[1] = system: TRPV1; conditions: spinal cord; completely reversible by a TRPV1 antagonist

bound to plasma proteins [%] | free (unbound) share of total concentration in plasma (plasma) [%] | Compound | tactile allodynia [1]
 |  | 9-hydroxyoctadecadienoic acid [9-HODE] | results in tactile allodynia
> 99 | ~0.1 | CC(C(=O)O)c1ccc(-c2ccccc2)c(F)c1 (stereo not shown) [flurbiprofen] | 
 |  | COc1cc(CNC(=O)CCCC/C=C/C(C)C)ccc1O [capsaicin] | results in tactile allodynia
